# According to patent US6992169B2, “Carrier based drug delivery system” (Cyclacel Limited, priority 1998, dated 2006):
# Tests used:
# HaCaT cells = experiment: In vitro cytotoxic activity, inhibition of cell proliferation, ATP bioluminescence (ViaLight); assay type: cell-based, human
# Protocol: (§1) This compound (abbreviated ‘MTX-Pen’ in the tables below) was evaluated for its ability to inhibit cell proliferation of normal (immortalised) human cells (HaCaT cells, Tables 1 & 2) and a human colorectal cancer cell line (HT29, Table 3).
# (§2) Assay procedure—Cells were seeded into 96-well plates at 2,500 cells/well in DMEM with 10% FCS and antibiotics. After overnight incubation, test compound dilutions in cell medium were prepared and were added to the cells. Samples were taken 1, 2, 3, and 4 days after compound addition. Nucleotide Releasing Reagent (LumiTech ViaLight kit) was added in order to lyse the cells and release ATP. After incubation at room temperature (5 min), the mixtures were transferred to opaque 96-well plates and stored at −20° C. until analysis. After loading plates into a luminometer (Lucy 1, Labtech International), ATP Monitoring Reagent (20 μL/well, LumiTech ViaLight kit) was added to each well successively and light intensity was measured immediately. Six readings were taken per sample. Each assay point was established using six replicates and appropriate controls. […] Statistically significant results in the tables below are printed in bold face.
# (§3) This compound (abbreviated ‘MTX-Pen’ in tables below) was evaluated for its ability to inhibit cell proliferation of normal (immortalised) human cells (HaCaT cells, Tables 1 & 2) and a human colorectal cancer cell line (HT29, Table 3).
# (§4) Assay procedure—Cells were seeded into 96-well plates at 2,500 cells/well in DMEM with 10% foetal calf serum and antibiotics. After overnight incubation, test compound dilutions in cell medium were prepared and were added to the cells. Samples were taken 1, 2, 3, and 4 days after compound addition. Nucleotide Releasing Reagent (LumiTech ViaLight kit) was added in order to lyse the cells and release ATP. After incubation at room temperature (5 min), the mixtures were transferred to opaque 96-well plates and stored at −20° C. until analysis. After loading plates into a luminometer (Lucy 1, Labtech International), ATP Monitoring Reagent ([…], LumiTech ViaLight kit) was added to each well successively and light intensity was measured immediately. Six readings were taken per sample. Each assay point was established using six replicates and appropriate controls.
# HT29 = experiment: as above; assay type: cell-based, human
# Protocol: as §1, §2, §3, §4
# [1] = Table 1, HaCaT, Dose 0.2 μM, Day 1
# [2] = Table 1, HaCaT, Dose 0.2 μM, Day 2
# [3] = Table 1, HaCaT, Dose 0.2 μM, Day 3
# [4] = Table 1, HaCaT, Dose 0.2 μM, Day 4
# [5] = Table 1, HaCaT, Dose 0.5 μM, Day 1
# [6] = Table 1, HaCaT, Dose 0.5 μM, Day 2
# [7] = Table 1, HaCaT, Dose 0.5 μM, Day 3
# [8] = Table 1, HaCaT, Dose 0.5 μM, Day 4
# [9] = Table 1, HaCaT, Dose 1.5 μM, Day 1
# [10] = Table 1, HaCaT, Dose 1.5 μM, Day 2
# [11] = Table 1, HaCaT, Dose 1.5 μM, Day 3
# [12] = Table 1, HaCaT, Dose 1.5 μM, Day 4
# [13] = Table 1, HaCaT, Dose 4.4 μM, Day 1
# [14] = Table 1, HaCaT, Dose 4.4 μM, Day 2
# [15] = Table 1, HaCaT, Dose 4.4 μM, Day 3
# [16] = Table 1, HaCaT, Dose 4.4 μM, Day 4
# [17] = Table 1, HaCaT, Dose 13.3 μM, Day 1
# [18] = Table 1, HaCaT, Dose 13.3 μM, Day 2
# [19] = Table 1, HaCaT, Dose 13.3 μM, Day 3
# [20] = Table 1, HaCaT, Dose 13.3 μM, Day 4
# [21] = Table 1, HaCaT, Dose 40.0 μM, Day 1
# [22] = Table 1, HaCaT, Dose 40.0 μM, Day 2
# [23] = Table 1, HaCaT, Dose 40.0 μM, Day 3
# [24] = Table 1, HaCaT, Dose 40.0 μM, Day 4
substance,measurement,setting,value
"H-Ala-Arg-Gln-Ile-Lys-Ile-Trp-Phe-Gln-Asn-Arg-Arg-Met-Lys-Trp-Lys-Lys-OH (H-ARQIKIWFQNRRMKWKK-OH) [Pen, the free vector]",% Cell Death,HaCaT cells; [1],26%
same,% Cell Death,HaCaT cells; [2],0%
same,% Cell Death,HaCaT cells; [3],−3%
same,% Cell Death,HaCaT cells; [4],21%
same,% Cell Death,HaCaT cells; [5],6%
same,% Cell Death,HaCaT cells; [6],−6%
same,% Cell Death,HaCaT cells; [7],−29%
same,% Cell Death,HaCaT cells; [8],−26%
same,% Cell Death,HaCaT cells; [9],16%
same,% Cell Death,HaCaT cells; [10],−31%
same,% Cell Death,HaCaT cells; [11],2%
same,% Cell Death,HaCaT cells; [12],−14%
same,% Cell Death,HaCaT cells; [13],8%
same,% Cell Death,HaCaT cells; [14],−4%
same,% Cell Death,HaCaT cells; [15],−1%
same,% Cell Death,HaCaT cells; [16],10%
same,% Cell Death,HaCaT cells; [17],18%
same,% Cell Death,HaCaT cells; [18],0%
same,% Cell Death,HaCaT cells; [19],−17%
same,% Cell Death,HaCaT cells; [20],−6%
same,% Cell Death,HaCaT cells; [21],16%
same,% Cell Death,HaCaT cells; [22],−22%
same,% Cell Death,HaCaT cells; [23],5%
same,% Cell Death,HaCaT cells; [24],12%
"{[4[N-(2,4-Diamino-6-pteridinyl-methyl)-N-methylamino]benzoyl]-Glu-Gly-βAla}4-Lys2-Lys-βAla-Arg-Gln-Ile-Lys-Ile-Trp-Phe-Gln-Asn-Arg-Arg-Met-Lys-Trp-Lys-Lys-OH [MTX-Pen]",% Cell Death,"HT29; Table 3, HT 29, Dose 0.5 μM, Day 1",14%
same,% Cell Death,"HT29; Table 3, HT 29, Dose 0.5 μM, Day 2",8%
same,% Cell Death,"HT29; Table 3, HT 29, Dose 0.5 μM, Day 3",17%
same,% Cell Death,"HT29; Table 3, HT 29, Dose 0.5 μM, Day 4",16%
same,% Cell Death,"HT29; Table 3, HT 29, Dose 1.5 μM, Day 1",16%
same,% Cell Death,"HT29; Table 3, HT 29, Dose 1.5 μM, Day 2",9%
same,% Cell Death,"HT29; Table 3, HT 29, Dose 1.5 μM, Day 3",15%
same,% Cell Death,"HT29; Table 3, HT 29, Dose 1.5 μM, Day 4",45%
same,% Cell Death,"HT29; Table 3, HT 29, Dose 4.4 μM, Day 1",10%
same,% Cell Death,"HT29; Table 3, HT 29, Dose 4.4 μM, Day 2",6%
same,% Cell Death,"HT29; Table 3, HT 29, Dose 4.4 μM, Day 3",46%
same,% Cell Death,"HT29; Table 3, HT 29, Dose 4.4 μM, Day 4",77%
same,% Cell Death,"HT29; Table 3, HT 29, Dose 13.3 μM, Day 1",3%
same,% Cell Death,"HT29; Table 3, HT 29, Dose 13.3 μM, Day 2",45%
same,% Cell Death,"HT29; Table 3, HT 29, Dose 13.3 μM, Day 3",88%
same,% Cell Death,"HT29; Table 3, HT 29, Dose 13.3 μM, Day 4",96%
same,% Cell Death,"HT29; Table 3, HT 29, Dose 40.0 μM, Day 1",31%
same,% Cell Death,"HT29; Table 3, HT 29, Dose 40.0 μM, Day 2",79%
same,% Cell Death,"HT29; Table 3, HT 29, Dose 40.0 μM, Day 3",96%
same,% Cell Death,"HT29; Table 3, HT 29, Dose 40.0 μM, Day 4",98%
same,% Cell Death,HaCaT cells; [1],14%
same,% Cell Death,HaCaT cells; [2],21%
same,% Cell Death,HaCaT cells; [3],20%
same,% Cell Death,HaCaT cells; [4],51%
same,% Cell Death,HaCaT cells; [5],−19%
same,% Cell Death,HaCaT cells; [6],2%
same,% Cell Death,HaCaT cells; [7],29%
same,% Cell Death,HaCaT cells; [8],49%
same,% Cell Death,HaCaT cells; [9],−24%
same,% Cell Death,HaCaT cells; [10],82%
same,% Cell Death,HaCaT cells; [11],82%
same,% Cell Death,HaCaT cells; [12],88%
same,% Cell Death,HaCaT cells; [13],−8%
same,% Cell Death,HaCaT cells; [14],45%
same,% Cell Death,HaCaT cells; [15],95%
same,% Cell Death,HaCaT cells; [16],98%
same,% Cell Death,HaCaT cells; [17],−42%
same,% Cell Death,HaCaT cells; [18],63%
same,% Cell Death,HaCaT cells; [19],97%
same,% Cell Death,HaCaT cells; [20],98%
same,% Cell Death,HaCaT cells; [21],29%
same,% Cell Death,HaCaT cells; [22],82%
same,% Cell Death,HaCaT cells; [23],97%
same,% Cell Death,HaCaT cells; [24],98%
same,% Cell Death,"HaCaT cells; Table 2, HaCaT, Dose 0.5 μM, Day 1",13%
same,% Cell Death,"HaCaT cells; Table 2, HaCaT, Dose 0.5 μM, Day 2",24%
same,% Cell Death,"HaCaT cells; Table 2, HaCaT, Dose 0.5 μM, Day 3",−27%
same,% Cell Death,"HaCaT cells; Table 2, HaCaT, Dose 0.5 μM, Day 4",2%
same,% Cell Death,"HaCaT cells; Table 2, HaCaT, Dose 1.5 μM, Day 1",19%
same,% Cell Death,"HaCaT cells; Table 2, HaCaT, Dose 1.5 μM, Day 2",12%
same,% Cell Death,"HaCaT cells; Table 2, HaCaT, Dose 1.5 μM, Day 3",−16%
same,% Cell Death,"HaCaT cells; Table 2, HaCaT, Dose 1.5 μM, Day 4",17%
same,% Cell Death,"HaCaT cells; Table 2, HaCaT, Dose 4.4 μM, Day 1",15%
same,% Cell Death,"HaCaT cells; Table 2, HaCaT, Dose 4.4 μM, Day 2",52%
same,% Cell Death,"HaCaT cells; Table 2, HaCaT, Dose 4.4 μM, Day 3",95%
same,% Cell Death,"HaCaT cells; Table 2, HaCaT, Dose 4.4 μM, Day 4",88%
same,% Cell Death,"HaCaT cells; Table 2, HaCaT, Dose 13.3 μM, Day 1",27%
same,% Cell Death,"HaCaT cells; Table 2, HaCaT, Dose 13.3 μM, Day 2",87%
same,% Cell Death,"HaCaT cells; Table 2, HaCaT, Dose 13.3 μM, Day 3",95%
same,% Cell Death,"HaCaT cells; Table 2, HaCaT, Dose 13.3 μM, Day 4",94%
same,% Cell Death,"HaCaT cells; Table 2, HaCaT, Dose 40.0 μM, Day 1",42%
same,% Cell Death,"HaCaT cells; Table 2, HaCaT, Dose 40.0 μM, Day 2",88%
same,% Cell Death,"HaCaT cells; Table 2, HaCaT, Dose 40.0 μM, Day 3",95%
same,% Cell Death,"HaCaT cells; Table 2, HaCaT, Dose 40.0 μM, Day 4",94%
